{
  "source": "patent US20250340848A1",
  "about": "“METHODS FOR CHEMICAL REPROGRAMMING AND PLURIPOTENT STEM CELLS” (Peking University, priority 2022, published 2025)",
  "test_system": "hADSCs",
  "assay": "Three-stage conversion of hADSCs into hCiPSCs (methods of EXAMPLE 1), numbers of hCiPSC colonies",
  "format": "cell-based, human",
  "excerpt": "FIG. 1 illustrates a schematic of an exemplary method for converting human somatic cells into pluripotent stem cells. The method has 3 stages. During any of the 3 stages, any cell can proliferate and give rise to progeny cells. In stage 1, a first population of cells comprising somatic cells are contacted with a first composition for about 4-12 days. The first population of cells can comprise somatic cells (e.g., fibroblasts or primary human adult adipose derived mesenchymal stromal cells (hADSCs)). During and/or subsequent to contacting the first composition, at least a subset of the cells of the first population of cells or the progenies thereof are converted into a second population of cells. The second population of cells can comprise epithelial-like cells. In stage 2, the second population of cells or the progenies thereof are then contacted with a second composition for about 4-16 days. During and/or subsequent to contacting the second composition, at least a subset of the cells of the second population of cells or the progenies thereof are converted into a third population of cells. The third population of cells can comprise intermediate plastic state cells. In stage 3, the third population of cells or the progenies thereof are contacted with a third composition for about 6-12 days. During and/or subsequent to contacting the third composition, at least a subset of the cells of the third population of cells or the progenies thereof are converted into a fourth population of cells.\nFIG. 2 illustrates a schematic of an exemplary method for converting human fibroblasts into pluripotent stem cells. The method can comprise 3 stages. During any of the 3 stages, any cell can proliferate and give rise to progeny cells. In stage 1, a first population of cells comprising fibroblasts is contacted with a first composition for about 8-10 days. During and/or subsequent to contacting the first composition, at least a subset of the cells of the first population of cells or the progenies thereof are converted into a second population of cells. The second population of cells can comprise epithelial-like cells. The epithelial-like cells express an increased amount of LIN28A, relative to the first population of cells or their progenies. In stage 2, the second population of cells or the progenies thereof are then contacted with a second composition for about 12-16 days. During and/or subsequent to contacting the second composition, at least a subset of the cells of the second population of cells or the progenies thereof are converted into a third population of cells. The third population of cells can comprise intermediate plastic state cells. The intermediate plastic state cells express both SALL4 and LIN28A. In stage 3, the third population of cells or the progenies thereof are contacted with a third composition for about 8-10 days. During and/or subsequent to contacting the third composition, at least a subset of the cells of the third population of cells or the progenies thereof are converted into a fourth population of cells. […] The second conversion medium can then be removed from the cells. […] The third stage 3 medium may allow the pluripotent stem cells or the progenies thereof to proliferate.\nIn one experiment, when converting hCiPSCs from somatic cell (e.g., hADSCs), hypoxia with 5% O2 was used in stage 1 conversion. After stage 1 conversion, cells were incubated with 21% O2. The induction medium was changed every 3-4 days. hADSCs were seeded at a density of 1×10^4 cells per well of a 12-well plate in 15% FBS-DMEM medium and would be changed into stage 1 conversion medium the next day. For stage 1 conversion, single layer epithelial-like cells induced from hADSCs would emerge at day 4-6 and approach 100% confluence at day 8-12. Then the medium was changed into stage 2 conversion medium. […]",
  "key": {"[1]": {"conditions": "factor removed from the stage 3 conversion medium, FIG. 19"}, "[2]": {"conditions": "various combinations supplemented to stage 1 conversion medium comprising CHIR99021, 616452, TTNPB and AKT Kinase Inhibitor, FIG. 5"}, "[3]": {"conditions": "factor removed from the stage 2 conversion medium, FIG. 17"}, "[4]": {"conditions": "factor removed from the stage 1 conversion medium, FIG. 4"}},
  "data": [
    {"smiles": "O=C(NOC[C@H](O)CO)c1ccc(F)c(F)c1Nc1ccc(I)cc1F", "note": "[PD0325901]", "values": [
      {"measurement": "numbers of converted hCiPSCs", "setting": "[1]", "result": "minimal numbers of converted hCiPSCs"}
    ]},
    {"smiles": "CC(=O)N1CCN([C@H]2CCC[C@@H](NC(=O)c3cc4c(F)ccc(C)c4[nH]3)C2)CC1.O=C(O)C(F)(F)F", "note": "[SETD2-IN-1, N-[(1R,3S)-3-(4-acetylpiperazin-1-yl)cyclohexyl]-4-fluoro-7-methyl-1H-indole-2-carboxamide;2,2,2-trifluoroacetic acid]", "values": [
      {"measurement": "numbers of converted hCiPSCs", "setting": "supplemented to the stage 1 conversion medium, FIG. 6", "result": "significantly increased the numbers of converted hCiPSCs"}
    ]},
    {"smiles": "N#CC[C@H](C1CCCC1)n1cc(-c2ncnc3[nH]ccc23)cn1", "note": "[Ruxolitinib, (3R)-3-cyclopentyl-3-[4-(7H-pyrrolo[2,3-d]pyrimidin-4-yl)pyrazol-1-yl]propanenitrile]", "values": [
      {"measurement": "numbers of converted hCiPSCs", "setting": "[2]", "result": "significantly increase the numbers of converted hCiPSCs"}
    ]},
    {"smiles": "COc1ccc(CCc2nc3cc(-c4c(C)noc4C)ccc3n2C[C@H](C)N2CCOCC2)cc1Cl", "note": "[SGC-CBP30, 2-[2-(3-chloro-4-methoxyphenyl)ethyl]-5-(3,5-dimethyl-4-isoxazolyl)-1-[(2S)-2-(4-morpholinyl)propyl]-1H-benzimidazole]", "values": [
      {"measurement": "numbers of converted hCiPSCs", "setting": "[3]", "result": "minimal numbers of converted hCiPSCs"}
    ]},
    {"smiles": "CNC1CCC(N(Cc2cccc(-c3ccncc3)c2)C(=O)c2sc3ccccc3c2Cl)CC1.Cl", "note": "(stereo not drawn) [SAG, 3-chloro-N-[4-(methylamino)cyclohexyl]-N-[(3-pyridin-4-ylphenyl)methyl]-1-benzothiophene-2-carboxamide;hydrochloride]", "values": [
      {"measurement": "numbers of converted hCiPSCs", "setting": "[2]", "result": "significantly increase the numbers of converted hCiPSCs"}
    ]},
    {"smiles": "Cc1cnc(-c2cnc(NCCNc3ccc(C#N)cn3)nc2-c2ccc(Cl)cc2Cl)[nH]1", "note": "[CHIR99021, 6-[[2-[[4-(2,4-Dichlorophenyl)-5-(5-methyl-1H-imidazol-2-yl)-2-pyrimidinyl]amino]ethyl]amino]-3-pyridinecarbonitrile]", "values": [
      {"measurement": "numbers of converted hCiPSCs", "setting": "[4]", "result": "minimal numbers of converted hCiPSCs"},
      {"measurement": "numbers of converted hCiPSCs", "setting": "[3]", "result": "minimal numbers of converted hCiPSCs"}
    ]},
    {"smiles": "CN(C)CCOc1ccc(-c2nc(-c3ccc4c(c3)CCC4=NO)c(-c3ccncc3)[nH]2)cc1", "note": "[SB590885, 5-[2-[4-[2-(Dimethylamino)ethoxy]phenyl]-5-(4-pyridinyl)-1H-imidazol-4-yl]-2,3-dihydro-1H-inden-1-one oxime]", "values": [
      {"measurement": "numbers of converted hCiPSCs", "setting": "[1]", "result": "minimal numbers of converted hCiPSCs"}
    ]},
    {"smiles": "C/C(=C\\c1ccc(C(=O)O)cc1)c1ccc2c(c1)C(C)(C)CCC2(C)C", "note": "[TTNPB, 4-[(E)-2-(5,6,7,8-Tetrahydro-5,5,8,8-tetramethyl-2-naphthalenyl)-1-propenyl]benzoic acid]", "values": [
      {"measurement": "numbers of converted hCiPSCs", "setting": "[4]", "result": "minimal numbers of converted hCiPSCs"},
      {"measurement": "numbers of converted hCiPSCs", "setting": "[3]", "result": "minimal numbers of converted hCiPSCs"}
    ]},
    {"smiles": "O=C(O)c1ccc2c(c1)nc(Nc1cccc(Cl)c1)c1ccncc12", "note": "[CX-4945, 5-(3-chloroanilino)benzo[c][2,6]naphthyridine-8-carboxylic acid]", "values": [
      {"measurement": "reprogramming efficiency", "setting": "AKTi and CX4945 included in the stage 2 conversion medium (Base), FIG. 18", "result": "significantly improved the reprogramming efficiency"}
    ]},
    {"smiles": "Nc1nccc2c1ncn2[C@@H]1C=C(CO)[C@@H](O)[C@H]1O", "note": "[DZNep, (1S,2R,5R)-5-(4-Amino-1H-imidazo[4,5-c]pyridin-1-yl)-3-(hydroxymethyl)-3-cyclopentene-1,2-diol]", "values": [
      {"measurement": "numbers of converted hCiPSCs", "setting": "[3]", "result": "minimal numbers of converted hCiPSCs"},
      {"measurement": "numbers of converted hCiPSCs", "setting": "[2]", "result": "significantly increase the numbers of converted hCiPSCs"}
    ]},
    {"smiles": "Cc1cccc(-c2n[nH]cc2-c2ccc3ncccc3n2)n1", "note": "[compound 616452, 2-(3-(6-Methylpyridin-2-yl)-1H-pyrazol-4-yl)-1,5-naphthyridine]", "values": [
      {"measurement": "numbers of converted hCiPSCs", "setting": "[4]", "result": "minimal numbers of converted hCiPSCs"},
      {"measurement": "numbers of converted hCiPSCs", "setting": "[3]", "result": "minimal numbers of converted hCiPSCs"}
    ]},
    {"smiles": "Nc1ncnc2c1c(I)cn2[C@@H]1O[C@H](CO)[C@@H](O)[C@H]1O", "note": "[5-ITU, (2R,3R,4S,5R)-2-(4-amino-5-iodopyrrolo[2,3-d]pyrimidin-7-yl)-5-(hydroxymethyl)oxolane-3,4-diol]", "values": [
      {"measurement": "increase of the numbers of converted hCiPSCs", "setting": "added to the stage 2 conversion medium, relative to medium without it, FIGS. 7A-7B", "result": "more than 5 fold"},
      {"measurement": "numbers of converted hCiPSCs", "setting": "[3]", "result": "minimal numbers of converted hCiPSCs"}
    ]},
    {"smiles": "CCCC(CCC)C(=O)O", "note": "[VPA, valproic acid]", "values": [
      {"measurement": "numbers of converted hCiPSCs", "setting": "[1]", "result": "minimal numbers of converted hCiPSCs"}
    ]},
    {"smiles": "Cc1cc(NC(=O)c2cccc(NC(=O)/C=C/CN(C)C)c2)ccc1Nc1nccc(-c2cccnc2)n1", "note": "[JNKIN8, 3-[[(E)-4-(dimethylamino)but-2-enoyl]amino]-N-[3-methyl-4-[(4-pyridin-3-ylpyrimidin-2-yl)amino]phenyl]benzamide]", "values": [
      {"measurement": "numbers of converted hCiPSCs", "setting": "[3]", "result": "minimal numbers of converted hCiPSCs"}
    ]},
    {"smiles": "CC(C)N(C[C@H]1O[C@@H](n2cnc3c(N)ncnc32)[C@H](O)[C@@H]1O)[C@H]1C[C@@H](CCc2nc3cc(C(C)(C)C)ccc3[nH]2)C1", "note": "[EPZ5676, (2R,3R,4S,5R)-2-(6-amino-9H-purin-9-yl)-5-((((1r,3S)-3-(2-(5-(tert-butyl)-1H-benzo[d]imidazol-2-yl)ethyl)cyclobutyl)(isopropyl)amino)methyl)tetrahydrofuran-3,4-diol]", "values": [
      {"measurement": "numbers of converted hCiPSCs", "setting": "[3]", "result": "reduced the numbers of converted hCiPSCs"},
      {"measurement": "numbers of converted hCiPSCs", "setting": "[2]", "result": "significantly increase the numbers of converted hCiPSCs"}
    ]}
  ]
}
